From ChEMBL document CHEMBL1201862, “PubChem BioAssay data set” (2004)
Activity calls are given as the source filed them.

Legend:
Bcl-2-related protein A1 [1] = target: T1, Bcl-2-related protein A1 (Mus musculus, UniProt Q07440); experiment: displacement of Bid BH3 peptide from Bfl-1 – biochemical, fluorescence polarization, FITC-Bid, mouse, primary screen (AID 432)
T1 sequence (Q07440 whole entry): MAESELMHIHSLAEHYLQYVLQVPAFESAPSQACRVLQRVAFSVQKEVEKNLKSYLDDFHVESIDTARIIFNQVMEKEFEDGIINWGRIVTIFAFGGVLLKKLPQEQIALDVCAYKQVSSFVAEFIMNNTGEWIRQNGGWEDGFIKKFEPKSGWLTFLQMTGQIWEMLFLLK

Bcl-2-related protein A1 [2] = target: T1, Bcl-2-related protein A1; experiment: small-molecule antagonists of Bfl-1/BH3 interaction – biochemical, TR-FRET, mouse Bfl-1, confirmation (AID 621);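 further: TR-FRET binding of GST-Bfl-1 to FITC-labelled Bid peptide via terbium antibody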
[3] = M. tuberculosis growth inhibition, HTS (AID 449762); type: functional
Ion channel NompC = Ion channel NompC (Danio rerio, UniProt Q7T1G6); experiment: Fluorescence counterscreen assay for TRPML3 agonists: dose response cell-based high-throughput screening assay to identify agonists of the transient receptor potential channel N1 (TRPN1). [Related pubchem assays: 1526, 1424, 1448 ]; type: functional
Ion channel NompC, sequence (Q7T1G6 whole entry): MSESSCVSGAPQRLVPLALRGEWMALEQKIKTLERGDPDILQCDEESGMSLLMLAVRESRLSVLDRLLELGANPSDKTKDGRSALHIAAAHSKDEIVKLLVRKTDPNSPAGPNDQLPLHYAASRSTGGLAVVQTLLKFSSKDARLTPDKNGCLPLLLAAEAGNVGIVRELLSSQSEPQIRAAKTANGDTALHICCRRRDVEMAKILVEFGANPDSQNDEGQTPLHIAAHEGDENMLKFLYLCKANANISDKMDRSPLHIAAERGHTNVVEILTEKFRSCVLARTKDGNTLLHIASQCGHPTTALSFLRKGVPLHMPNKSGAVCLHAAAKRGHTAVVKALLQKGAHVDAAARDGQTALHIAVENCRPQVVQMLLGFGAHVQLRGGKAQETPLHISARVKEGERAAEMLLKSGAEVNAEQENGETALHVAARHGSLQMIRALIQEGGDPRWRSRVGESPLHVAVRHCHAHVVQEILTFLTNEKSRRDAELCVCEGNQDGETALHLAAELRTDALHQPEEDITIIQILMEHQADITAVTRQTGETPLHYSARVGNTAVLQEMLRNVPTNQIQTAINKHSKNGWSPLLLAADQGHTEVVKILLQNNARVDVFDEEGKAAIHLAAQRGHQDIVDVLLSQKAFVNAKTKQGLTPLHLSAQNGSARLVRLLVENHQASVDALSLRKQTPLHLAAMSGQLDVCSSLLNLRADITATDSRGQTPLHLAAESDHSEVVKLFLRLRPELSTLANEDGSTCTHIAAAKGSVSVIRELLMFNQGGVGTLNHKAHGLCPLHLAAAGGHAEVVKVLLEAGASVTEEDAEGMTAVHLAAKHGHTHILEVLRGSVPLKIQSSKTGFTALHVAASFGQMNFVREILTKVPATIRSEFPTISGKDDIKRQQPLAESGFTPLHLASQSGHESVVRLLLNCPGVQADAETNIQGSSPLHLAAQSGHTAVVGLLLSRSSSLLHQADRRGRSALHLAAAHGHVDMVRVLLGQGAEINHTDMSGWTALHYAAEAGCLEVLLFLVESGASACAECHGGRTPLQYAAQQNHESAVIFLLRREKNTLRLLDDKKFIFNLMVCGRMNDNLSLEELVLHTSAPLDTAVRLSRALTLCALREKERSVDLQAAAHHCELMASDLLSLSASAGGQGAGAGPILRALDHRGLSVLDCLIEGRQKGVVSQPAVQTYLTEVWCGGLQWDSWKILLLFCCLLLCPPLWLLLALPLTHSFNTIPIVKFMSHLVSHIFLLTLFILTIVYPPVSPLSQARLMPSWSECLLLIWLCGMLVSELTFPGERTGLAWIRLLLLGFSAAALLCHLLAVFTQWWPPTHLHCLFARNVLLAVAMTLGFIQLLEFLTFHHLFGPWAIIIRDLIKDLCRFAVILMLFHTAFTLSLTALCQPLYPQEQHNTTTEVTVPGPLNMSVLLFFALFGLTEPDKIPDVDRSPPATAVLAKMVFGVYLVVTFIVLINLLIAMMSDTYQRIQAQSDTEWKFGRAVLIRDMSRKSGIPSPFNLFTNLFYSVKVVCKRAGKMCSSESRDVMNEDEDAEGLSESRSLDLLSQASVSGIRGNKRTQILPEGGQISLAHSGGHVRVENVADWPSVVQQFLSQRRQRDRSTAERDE

Mucolipin-3 = Mucolipin-3 (Homo sapiens, UniProt Q8TDD5); experiment: Dose response cell-based high-throughput screening assay for agonists of the transient receptor potential channel ML3 (TRPML3). [Related pubchem assays: 1526, 1424, 1448 ]; type: functional
Mucolipin-3, sequence (Q8TDD5 whole entry): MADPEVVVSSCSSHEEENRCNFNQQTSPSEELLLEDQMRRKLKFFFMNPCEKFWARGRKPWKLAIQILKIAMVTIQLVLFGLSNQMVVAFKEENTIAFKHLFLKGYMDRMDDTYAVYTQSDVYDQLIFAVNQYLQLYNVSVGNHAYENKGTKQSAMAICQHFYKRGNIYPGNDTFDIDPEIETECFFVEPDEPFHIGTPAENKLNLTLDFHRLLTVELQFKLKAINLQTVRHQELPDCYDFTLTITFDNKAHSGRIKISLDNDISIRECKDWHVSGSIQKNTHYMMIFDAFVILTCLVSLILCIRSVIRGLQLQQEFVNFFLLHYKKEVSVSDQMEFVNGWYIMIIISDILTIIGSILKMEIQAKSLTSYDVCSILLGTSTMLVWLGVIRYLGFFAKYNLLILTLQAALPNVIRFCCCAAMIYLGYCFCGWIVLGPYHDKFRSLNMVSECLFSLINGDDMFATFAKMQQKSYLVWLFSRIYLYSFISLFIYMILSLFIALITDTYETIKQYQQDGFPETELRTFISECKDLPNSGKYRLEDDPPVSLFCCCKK

Vero = experiment: Vero cell viability after compound exposure – synthesized analogs, set II, cytotoxicity control for West Nile virus antiviral project, SAR follow-up (AID 2402); type: functional; conditions: Chlorocebus sabaeus
Bcl-2-related protein A1 [4] = target: T1, Bcl-2-related protein A1; experiment: Bfl-1 binding inhibitors, SAR follow-up, biochemical, fluorescence polarization (AID 1070)
[5] = target: Luciferin 4-monooxygenase (Photinus pyralis, UniProt P08659); experiment: Counter Screen for Luciferase-based Assay Positives. [Related pubchem assays: 620, 618, 411 ]
Luciferin 4-monooxygenase, sequence (P08659 whole entry): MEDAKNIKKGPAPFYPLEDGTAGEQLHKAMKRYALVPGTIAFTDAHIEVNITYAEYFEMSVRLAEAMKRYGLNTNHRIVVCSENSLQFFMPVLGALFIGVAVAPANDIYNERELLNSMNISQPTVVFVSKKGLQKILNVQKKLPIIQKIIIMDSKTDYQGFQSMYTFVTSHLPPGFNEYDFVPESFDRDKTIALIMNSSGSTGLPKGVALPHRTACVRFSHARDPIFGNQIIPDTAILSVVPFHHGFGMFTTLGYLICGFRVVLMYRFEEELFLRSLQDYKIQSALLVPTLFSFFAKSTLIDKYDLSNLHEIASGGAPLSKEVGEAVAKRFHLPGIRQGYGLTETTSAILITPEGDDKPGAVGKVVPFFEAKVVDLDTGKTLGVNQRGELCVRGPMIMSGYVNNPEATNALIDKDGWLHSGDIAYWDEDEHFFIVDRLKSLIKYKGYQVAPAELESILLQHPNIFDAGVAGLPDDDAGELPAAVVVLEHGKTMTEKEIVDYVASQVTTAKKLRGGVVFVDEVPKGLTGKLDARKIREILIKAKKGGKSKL

HT-1080 = experiment: HT1080 cell viability loss – fluorescence readout (AID 620); type: functional, cell-based; conditions: Homo sapiens
[6] = target: Melanin-concentrating hormone receptor 1 (Homo sapiens, UniProt Q99705); experiment: Fluorescence-based counterscreen for antagonists of the G-protein coupled receptor 7 (GPR7): cell-based high throughput dose response assay to identify antagonists of the melanin-concentrating hormone receptor 1 (MCHR1).; type: functional
Melanin-concentrating hormone receptor 1, sequence (Q99705 whole entry): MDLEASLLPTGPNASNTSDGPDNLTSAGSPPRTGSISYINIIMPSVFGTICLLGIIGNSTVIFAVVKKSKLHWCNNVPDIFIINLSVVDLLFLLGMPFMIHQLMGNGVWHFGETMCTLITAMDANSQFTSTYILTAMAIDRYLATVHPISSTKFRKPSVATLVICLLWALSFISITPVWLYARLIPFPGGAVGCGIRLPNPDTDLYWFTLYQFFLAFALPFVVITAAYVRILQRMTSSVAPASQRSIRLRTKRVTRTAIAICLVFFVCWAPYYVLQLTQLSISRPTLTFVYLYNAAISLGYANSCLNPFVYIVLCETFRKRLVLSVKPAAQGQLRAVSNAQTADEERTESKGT

[7] = target: T2, Neuropeptides B/W receptor type 1 (Homo sapiens, UniProt P48145); experiment: Fluorescence-based dose response cell-based high throughput screening assay to identify antagonists of the G-protein coupled receptor 7 (GPR7). [Related pubchem assays: 1952 (Screening assay (GPR7 antagonists).), 1880 (Summary AID.)]; type: functional
T2 sequence (P48145 whole entry): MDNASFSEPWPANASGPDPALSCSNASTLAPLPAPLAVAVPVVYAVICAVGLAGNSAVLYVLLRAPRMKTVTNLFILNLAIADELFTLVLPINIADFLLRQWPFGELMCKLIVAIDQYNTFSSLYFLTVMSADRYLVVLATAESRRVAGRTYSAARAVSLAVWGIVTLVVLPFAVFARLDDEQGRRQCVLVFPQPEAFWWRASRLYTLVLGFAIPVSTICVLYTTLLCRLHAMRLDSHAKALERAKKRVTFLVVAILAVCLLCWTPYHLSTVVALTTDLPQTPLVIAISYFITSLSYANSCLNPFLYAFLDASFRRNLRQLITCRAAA

In the case of Cc1cc(C)c2c3c(c(-c4ccccc4)n2n1)c(=O)n(C)c(=O)n3C, the IC50 (Bcl-2-related protein A1 [1]) is reported as > 100 µM (not active) and the IC50 (Bcl-2-related protein A1 [2]) is reported as > 100 µM (not active).

For CCOC(=O)c1ccc(NC(=O)CSc2ccc(-c3cccnc3)nn2)cc1, the IC50 [3] was > 100 µM (active).

In the case of Cc1ccc(S(=O)(=O)N(C)c2cc(S(=O)(=O)N3CCC(C)CC3)c(C)cc2C)cc1, the EC50 (Ion channel NompC) is reported as > 29.9 µM (not active) and the EC50 (Mucolipin-3) is reported as 2.06 µM (active).

In the case of CC1CC(C)CN(C(=O)CSc2nc3ccccc3c(=O)n2-c2ccc(F)cc2)C1 (configuration not stated), the CC50 (Vero) is reported as > 100 µM (active).

With Cc1ccc(-n2nnc(-c3cc4ccccc4nc3Cl)n2)cc1 the IC50 (Bcl-2-related protein A1 [2]) was > 100 µM (not active) and the IC50 (Bcl-2-related protein A1 [4]) was > 100 µM (not active).

With Cc1ccc(-c2nc3cc(N)ccc3o2)cc1 the EC50 [5] was 4.68 µM (active) and the EC50 (HT-1080) was > 50 µM (not active).

In the case of CCC(C)(C(=O)NC1CCCC1)N(Cc1ccco1)C(=O)c1ccc2c(c1)OCO2 (configuration not stated), the IC50 [6] is reported as > 43.8 µM (not active) and the IC50 [7] is reported as > 43.8 µM (not active).
